# Source: patent publication US6358885B1, “Substituted phenylheterocyclic herbicides” (Mississippi State University, priority 1992, dated 2002)
# Legend:
# Experiment in all cases: Test B preemergence/postemergence greenhouse plant response rating 0 to 10
# barley = type: in vivo, Hordeum vulgare; conditions: for Plant response rating, Barley: 0 to 10 scale
# Procedure, shortened: (§1)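 Test chemicals were sprayed onto freshly planted seed and, concurrently, onto young plants between the one and four leaf stage. After a twelve- to sixteen-day greenhouse period, each species was visually compared with untreated controls.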
# barnyardgrass = type: in vivo, Echinochloa crus-galli; conditions: for Plant response rating, Barnyardgrass: 0 to 10 scale
# Procedure, shortened: as §1
# bedstraw = type: in vivo, Galium aparine; conditions: for Plant response rating, Bedstraw: 0 to 10 scale
# Procedure, shortened: as §1
# blackgrass = type: in vivo, Alopecurus myosuroides; conditions: for Plant response rating, Blackgrass: 0 to 10 scale
# Procedure, shortened: as §1
# cheatgrass = type: in vivo, Bromus secalinus; conditions: for Plant response rating, Cheatgrass: POSTEMERGENCE, 0 to 10 scale
# Procedure, shortened: as §1
# chickweed = type: in vivo, Stellaria media; conditions: for Plant response rating, Chickweed: 0 to 10 scale
# Procedure, shortened: as §1
# cocklebur = type: in vivo, Xanthium pensylvanicum; conditions: for Plant response rating, Cocklebur: 0 to 10 scale
# Procedure, shortened: as §1
# corn = type: in vivo, Zea mays; conditions: for Plant response rating, Corn: 0 to 10 scale
# Procedure, shortened: as §1
# cotton = type: in vivo, Gossypium hirsutum; conditions: for Plant response rating, Cotton: 0 to 10 scale
# Procedure, shortened: as §1
# crabgrass = type: in vivo, Digitaria spp.; conditions: for Plant response rating, Crabgrass: 0 to 10 scale
# Procedure, shortened: as §1
# giant foxtail = type: in vivo, Setaria faberii; conditions: for Plant response rating, Giant foxtail: 0 to 10 scale
# Procedure, shortened: as §1
# lambsquarters = type: in vivo, Chenopodium album; conditions: for Plant response rating, Lambsquarter: 0 to 10 scale
# Procedure, shortened: as §1
# morningglory = type: in vivo, Ipomoea hederacea; conditions: for Plant response rating, Morningglory: 0 to 10 scale
# Procedure, shortened: as §1
# rape = type: in vivo, Brassica napus; conditions: for Plant response rating, Rape: 0 to 10 scale
# Procedure, shortened: as §1
# rice = type: in vivo, Oryza sativa; conditions: for Plant response rating, Rice: 0 to 10 scale
# Procedure, shortened: as §1
# sorghum = type: in vivo, Sorghum bicolor; conditions: for Plant response rating, Sorghum: 0 to 10 scale
# Procedure, shortened: as §1
# soybean = type: in vivo, Glycine max; conditions: for Plant response rating, Soybean: 0 to 10 scale
# Procedure, shortened: as §1
# sugar beet = type: in vivo, Beta vulgaris; conditions: for Plant response rating, Sugar beet: 0 to 10 scale
# Procedure, shortened: as §1
# velvetleaf = type: in vivo, Abutilon theophrasti; conditions: for Plant response rating, Velvetleaf: 0 to 10 scale
# Procedure, shortened: as §1
# wheat = type: in vivo, Triticum aestivum; conditions: for Plant response rating, Wheat: 0 to 10 scale
# Procedure, shortened: as §1
# wild buckwheat = type: in vivo, Polygonum convolvulus; conditions: for Plant response rating, Wild buckwheat: 0 to 10 scale
# Procedure, shortened: as §1
# wild oat = type: in vivo, Avena fatua; conditions: for Plant response rating, Wild oat: 0 to 10 scale
# Procedure, shortened: as §1
# purple nutsedge = type: in vivo, Cyperus rotundus; conditions: for Plant response rating, Nutsedge: 0 to 10 scale
# Procedure, shortened: as §1
compound,measurement,setting,value
Oc1cc(-c2nn3c(c2Cl)CCCC3)c(Cl)cc1Cl [Compound 68],"Plant response rating, Barley","barley; POSTEMERGENCE, Rate 50 g/ha",3
same,"Plant response rating, Barley","barley; PREEMERGENCE, Rate 50 g/ha",0
same,"Plant response rating (0 to 10 scale), Barley","barley; PREEMERGENCE, Rate 200 g/ha",0
same,"Plant response rating, Barley","barley; Rate 200 g/ha, POSTEMERGENCE",3
same,"Plant response rating, Barnyardgrass","barnyardgrass; POSTEMERGENCE, Rate 50 g/ha",2
same,"Plant response rating, Barnyardgrass","barnyardgrass; PREEMERGENCE, Rate 50 g/ha",0
same,"Plant response rating (0 to 10 scale), Barnyardgrass","barnyardgrass; PREEMERGENCE, Rate 200 g/ha",0
same,"Plant response rating, Barnyardgrass","barnyardgrass; Rate 200 g/ha, POSTEMERGENCE",3
same,"Plant response rating, Bedstraw","bedstraw; POSTEMERGENCE, Rate 50 g/ha",7
same,"Plant response rating, Bedstraw","bedstraw; PREEMERGENCE, Rate 50 g/ha",0
same,"Plant response rating (0 to 10 scale), Bedstraw","bedstraw; PREEMERGENCE, Rate 200 g/ha",2
same,"Plant response rating, Bedstraw","bedstraw; Rate 200 g/ha, POSTEMERGENCE",9
same,"Plant response rating, Blackgrass","blackgrass; POSTEMERGENCE, Rate 50 g/ha",2
same,"Plant response rating, Blackgrass","blackgrass; PREEMERGENCE, Rate 50 g/ha",2
same,"Plant response rating (0 to 10 scale), Blackgrass","blackgrass; PREEMERGENCE, Rate 200 g/ha",8
same,"Plant response rating, Blackgrass","blackgrass; Rate 200 g/ha, POSTEMERGENCE",3
same,"Plant response rating, Cheatgrass",cheatgrass; Rate 50 g/ha,2
same,"Plant response rating (0 to 10 scale), Cheatgrass","cheatgrass; PREEMERGENCE, Rate 200 g/ha",3
same,"Plant response rating, Cheatgrass",cheatgrass; Rate 200 g/ha,3
same,"Plant response rating, Chickweed","chickweed; POSTEMERGENCE, Rate 50 g/ha",0
same,"Plant response rating, Chickweed","chickweed; PREEMERGENCE, Rate 50 g/ha",2
same,"Plant response rating (0 to 10 scale), Chickweed","chickweed; PREEMERGENCE, Rate 200 g/ha",2
same,"Plant response rating, Chickweed","chickweed; Rate 200 g/ha, POSTEMERGENCE",1
same,"Plant response rating, Cocklebur","cocklebur; POSTEMERGENCE, Rate 50 g/ha",6
same,"Plant response rating, Cocklebur","cocklebur; PREEMERGENCE, Rate 50 g/ha",0
same,"Plant response rating (0 to 10 scale), Cocklebur","cocklebur; PREEMERGENCE, Rate 200 g/ha",0
same,"Plant response rating, Cocklebur","cocklebur; Rate 200 g/ha, POSTEMERGENCE",7
same,"Plant response rating, Corn","corn; POSTEMERGENCE, Rate 50 g/ha",3
same,"Plant response rating, Corn","corn; PREEMERGENCE, Rate 50 g/ha",0
same,"Plant response rating (0 to 10 scale), Corn","corn; PREEMERGENCE, Rate 200 g/ha",0
same,"Plant response rating, Corn","corn; Rate 200 g/ha, POSTEMERGENCE",4
same,"Plant response rating, Cotton","cotton; POSTEMERGENCE, Rate 50 g/ha",10
same,"Plant response rating, Cotton","cotton; PREEMERGENCE, Rate 50 g/ha",0
same,"Plant response rating (0 to 10 scale), Cotton","cotton; PREEMERGENCE, Rate 200 g/ha",0
same,"Plant response rating, Cotton","cotton; Rate 200 g/ha, POSTEMERGENCE",10
same,"Plant response rating, Crabgrass","crabgrass; POSTEMERGENCE, Rate 50 g/ha",3
same,"Plant response rating, Crabgrass","crabgrass; PREEMERGENCE, Rate 50 g/ha",0
same,"Plant response rating (0 to 10 scale), Crabgrass","crabgrass; PREEMERGENCE, Rate 200 g/ha",2
same,"Plant response rating, Crabgrass","crabgrass; Rate 200 g/ha, POSTEMERGENCE",4
same,"Plant response rating, Giant foxtail","giant foxtail; POSTEMERGENCE, Rate 50 g/ha",4
same,"Plant response rating, Giant foxtail","giant foxtail; PREEMERGENCE, Rate 50 g/ha",0
same,"Plant response rating (0 to 10 scale), Giant foxtail","giant foxtail; PREEMERGENCE, Rate 200 g/ha",0
same,"Plant response rating, Giant foxtail","giant foxtail; Rate 200 g/ha, POSTEMERGENCE",4
same,"Plant response rating, Lambsquarter","lambsquarters; POSTEMERGENCE, Rate 50 g/ha",10
same,"Plant response rating, Lambsquarter","lambsquarters; PREEMERGENCE, Rate 50 g/ha",6
same,"Plant response rating (0 to 10 scale), Lambsquarter","lambsquarters; PREEMERGENCE, Rate 200 g/ha",0
same,"Plant response rating, Lambsquarter","lambsquarters; Rate 200 g/ha, POSTEMERGENCE",10
same,"Plant response rating, Morningglory","morningglory; POSTEMERGENCE, Rate 50 g/ha",8
same,"Plant response rating, Morningglory","morningglory; PREEMERGENCE, Rate 50 g/ha",0
same,"Plant response rating (0 to 10 scale), Morningglory","morningglory; PREEMERGENCE, Rate 200 g/ha",0
same,"Plant response rating, Morningglory","morningglory; Rate 200 g/ha, POSTEMERGENCE",8
same,"Plant response rating, Rape","rape; POSTEMERGENCE, Rate 50 g/ha",3
same,"Plant response rating, Rape","rape; PREEMERGENCE, Rate 50 g/ha",0
same,"Plant response rating (0 to 10 scale), Rape","rape; PREEMERGENCE, Rate 200 g/ha",0
same,"Plant response rating, Rape","rape; Rate 200 g/ha, POSTEMERGENCE",5
same,"Plant response rating, Rice","rice; POSTEMERGENCE, Rate 50 g/ha",5
same,"Plant response rating, Rice","rice; PREEMERGENCE, Rate 50 g/ha",0
same,"Plant response rating (0 to 10 scale), Rice","rice; PREEMERGENCE, Rate 200 g/ha",0
same,"Plant response rating, Rice","rice; Rate 200 g/ha, POSTEMERGENCE",5
same,"Plant response rating, Sorghum","sorghum; POSTEMERGENCE, Rate 50 g/ha",3
same,"Plant response rating, Sorghum","sorghum; PREEMERGENCE, Rate 50 g/ha",0
same,"Plant response rating (0 to 10 scale), Sorghum","sorghum; PREEMERGENCE, Rate 200 g/ha",0
same,"Plant response rating, Sorghum","sorghum; Rate 200 g/ha, POSTEMERGENCE",4
same,"Plant response rating, Soybean","soybean; POSTEMERGENCE, Rate 50 g/ha",4
same,"Plant response rating, Soybean","soybean; PREEMERGENCE, Rate 50 g/ha",0
same,"Plant response rating (0 to 10 scale), Soybean","soybean; PREEMERGENCE, Rate 200 g/ha",0
same,"Plant response rating, Soybean","soybean; Rate 200 g/ha, POSTEMERGENCE",6
same,"Plant response rating, Sugar beet","sugar beet; POSTEMERGENCE, Rate 50 g/ha",9
same,"Plant response rating, Sugar beet","sugar beet; PREEMERGENCE, Rate 50 g/ha",0
same,"Plant response rating (0 to 10 scale), Sugar beet","sugar beet; PREEMERGENCE, Rate 200 g/ha",9
same,"Plant response rating, Sugar beet","sugar beet; Rate 200 g/ha, POSTEMERGENCE",10
same,"Plant response rating, Velvetleaf","velvetleaf; POSTEMERGENCE, Rate 50 g/ha",8
same,"Plant response rating, Velvetleaf","velvetleaf; PREEMERGENCE, Rate 50 g/ha",0
same,"Plant response rating (0 to 10 scale), Velvetleaf","velvetleaf; PREEMERGENCE, Rate 200 g/ha",9
same,"Plant response rating, Velvetleaf","velvetleaf; Rate 200 g/ha, POSTEMERGENCE",10
same,"Plant response rating, Wheat","wheat; POSTEMERGENCE, Rate 50 g/ha",3
same,"Plant response rating, Wheat","wheat; PREEMERGENCE, Rate 50 g/ha",0
same,"Plant response rating (0 to 10 scale), Wheat","wheat; PREEMERGENCE, Rate 200 g/ha",3
same,"Plant response rating, Wheat","wheat; Rate 200 g/ha, POSTEMERGENCE",4
same,"Plant response rating, Wild buckwheat","wild buckwheat; POSTEMERGENCE, Rate 50 g/ha",10
same,"Plant response rating, Wild buckwheat","wild buckwheat; PREEMERGENCE, Rate 50 g/ha",0
same,"Plant response rating (0 to 10 scale), Wild buckwheat","wild buckwheat; PREEMERGENCE, Rate 200 g/ha",4
same,"Plant response rating, Wild buckwheat","wild buckwheat; Rate 200 g/ha, POSTEMERGENCE",10
same,"Plant response rating, Wild oat","wild oat; POSTEMERGENCE, Rate 50 g/ha",2
same,"Plant response rating, Wild oat","wild oat; PREEMERGENCE, Rate 50 g/ha",0
same,"Plant response rating (0 to 10 scale), Wild oat","wild oat; PREEMERGENCE, Rate 200 g/ha",0
same,"Plant response rating, Wild oat","wild oat; Rate 200 g/ha, POSTEMERGENCE",3
same,"Plant response rating, Nutsedge","purple nutsedge; POSTEMERGENCE, Rate 50 g/ha",2
same,"Plant response rating, Nutsedge","purple nutsedge; PREEMERGENCE, Rate 50 g/ha",0
same,"Plant response rating (0 to 10 scale), Nutsedge","purple nutsedge; PREEMERGENCE, Rate 200 g/ha",0
same,"Plant response rating, Nutsedge","purple nutsedge; Rate 200 g/ha, POSTEMERGENCE",3
